# Measurements from patent US6737383B1, “Herbicidal oxadiazolidines” (priority 1999, dated 2004).
# Key:
# [1] = system: rice; assay: Test B flood test rice; format: in vivo, Oryza sativa
# How it was run: (§1)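 Plants were grown to the 2-leaf stage before treatment with test chemical, then held in a greenhouse for twelve to sixteen days. Injury was visually rated against untreated controls on a 0–10 scale, where 0 is no effect and 10 is complete control.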
# [2] = system: duck salad; assay: Test B flood test duck salad; format: in vivo, Heteranthera limosa
# How it was run: as §1
# [3] = system: soybean; assay: Test B pre/postemergence soybean; format: in vivo, Glycine max
# How it was run: (§2)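 Response is a visual 0-to-10 score relative to untreated plants, where 0 means no effect and 10 means complete control, taken twelve to sixteen days after application. Treatments went onto soil at planting and onto foliage of 1- to 4-leaf plants, using a surfactant-containing non-phytotoxic solvent.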
# [4] = system: bedstraw; assay: Test B pre/postemergence bedstraw; format: in vivo, Galium aparine
# How it was run: as §2
# [5] = system: morningglory; assay: Test B pre/postemergence morningglory; format: in vivo, Ipomoea hederacea
# How it was run: as §2
# [6] = system: bamyardgrass; assay: Test B flood test barnyardgrass; format: in vivo, Echinochloa crus-galli
# How it was run: as §1
# [7] = system: corn; assay: Test B pre/postemergence corn; format: in vivo, Zea mays
# How it was run: as §2
# [8] = system: surinam grass; assay: Test B pre/postemergence surinam grass; format: in vivo, Brachiaria decumbens
# How it was run: as §2
# [9] = system: smallflower flatsedge; assay: Test B flood test smallflower flatsedge; format: in vivo, Cyperus difformis
# How it was run: as §1
# [10] = system: pigweed; assay: Test B pre/postemergence pigweed; format: in vivo, Amaranthus retroflexus
# How it was run: as §2
# [11] = system: rape; assay: Test B pre/postemergence rape; format: in vivo, Brassica napus
# How it was run: as §2
# [12] = system: cocklebur; assay: Test B pre/postemergence cocklebur; format: in vivo, Xanthium strumarium
# How it was run: as §2
# [13] = system: wild oat; assay: Test B pre/postemergence wild oat; format: in vivo, Avena fatua
# How it was run: as §2
# [14] = system: velvetleaf; assay: Test B pre/postemergence velvetleaf; format: in vivo, Abutilon theophrasti
# How it was run: as §2
# [15] = system: crabgrass; assay: Test B pre/postemergence crabgrass; format: in vivo, Digitaria sanguinalis
# How it was run: as §2
# [16] = system: sugar beet; assay: Test B pre/postemergence sugar beet; format: in vivo, Beta vulgaris
# How it was run: as §2
# [17] = Rate 62 g/ha, headed Pre-emergence (flood test species), scale 0 to 10 (0 no effect, 10 complete control)
# [18] = Rate 125 g/ha, Pre-emergence, flood test species, scale 0 to 10 where 0 is no effect and 10 is complete control
# [19] = Rate 250 g/ha, Pre-emergence, flood-test species, scale 0 to 10, 0 is no effect, 10 is complete control
# [20] = Rate 500 g/ha, Pre-emergence, flood test species, scale 0 to 10 (0 no effect, 10 complete control)
# [21] = Preemergence, Rate 62 g/ha, scale of 0 to 10 where 0 is no effect and 10 is complete control
# [22] = Preemergence, Rate 250 g/ha, scale of 0 to 10 where 0 is no effect and 10 is complete control
# [23] = Preemergence, Rate 500 g/ha, scale of 0 to 10 where 0 is no effect and 10 is complete control
# [24] = Rate 125 g/ha, Postemergence, scale of 0 to 10 where 0 is no effect and 10 is complete control
# [25] = Rate 125 g/ha, Preemergence, scale of 0 to 10 where 0 is no effect and 10 is complete control
# [26] = Rate 250 g/ha, Postemergence, scale of 0 to 10 where 0 is no effect and 10 is complete control
# [27] = Rate 500 g/ha, Postemergence, scale 0 to 10, 0 no effect, 10 complete control
# [28] = Rate 62 g/ha, Postemergence, scale of 0 to 10 where 0 is no effect and 10 is complete control
structure (smiles),measurement,setting,value
Cc1cccc(C)c1-n1c(=O)on(C(=O)N(C(C)C)C2C=CCCC2)c1=O (stereo not drawn) [Compound 273],Rice plant response rating,[1]; [17],0
same,Rice plant response rating,[1]; [18],0
same,Rice plant response rating,[1]; [19],0
same,Rice plant response rating,[1]; [20],0
same,Ducksalad plant response rating,[2]; [17],0
same,Ducksalad plant response rating,[2]; [18],0
same,Ducksalad plant response rating,[2]; [19],0
same,Ducksalad plant response rating,[2]; [20],0
same,Soybean plant response rating,[3]; [21],0
same,Soybean plant response rating,[3]; [22],0
same,"Plant response rating, Soybean",[3]; [23],0
same,Soybean plant response rating,[3]; [24],3
same,Soybean plant response rating,[3]; [25],0
same,"Plant response rating, Soybean",[3]; [26],3
same,Soybean plant response rating,[3]; [27],4
same,Bedstraw plant response rating,[4]; [21],0
same,Bedstraw plant response rating,[4]; [22],0
same,Bedstraw plant response rating,[4]; [28],0
same,Bedstraw plant response rating,[4]; [24],0
same,Bedstraw plant response rating,[4]; [25],0
same,"Plant response rating, Bedstraw",[4]; [26],0
same,Bedstraw plant response rating,[4]; [27],0
same,Morningglory plant response rating,[5]; [21],0
same,Morningglory plant response rating,[5]; [22],0
same,"Plant response rating, Morningglory",[5]; [23],0
same,Morningglory plant response rating,[5]; [24],0
same,Morningglory plant response rating,[5]; [25],0
same,"Plant response rating, Morningglory",[5]; [26],2
same,Morningglory plant response rating,[5]; [27],3
same,Barnyardgrass plant response rating,[6]; [17],0
same,Barnyardgrass plant response rating,[6]; [18],4
same,Barnyardgrass plant response rating,[6]; [19],4
same,Barnyardgrass plant response rating,[6]; [20],3
same,Corn plant response rating,[7]; [21],0
same,Corn plant response rating,[7]; [22],0
same,"Plant response rating, Corn",[7]; [23],0
same,Corn plant response rating,[7]; [28],0
same,Corn plant response rating,[7]; [24],0
same,Corn plant response rating,[7]; [25],0
same,"Plant response rating, Corn",[7]; [26],0
same,Corn plant response rating,[7]; [27],0
same,B. signalgrass plant response rating,[8]; [21],0
same,B. signalgrass plant response rating,[8]; [22],2
same,"Plant response rating, B. signalgrass",[8]; [23],3
same,B. signalgrass plant response rating,[8]; [28],0
same,B. signalgrass plant response rating,[8]; [24],0
same,B. signalgrass plant response rating,[8]; [25],0
same,"Plant response rating, B. signalgrass",[8]; [26],0
same,B. signalgrass plant response rating,[8]; [27],0
same,S. Flatsedge plant response rating,[9]; [17],0
same,S. Flatsedge plant response rating,[9]; [18],0
same,S. Flatsedge plant response rating,[9]; [19],0
same,S. Flatsedge plant response rating,[9]; [20],0
same,Redroot pigweed plant response rating,[10]; [21],0
same,Redroot pigweed plant response rating,[10]; [22],0
same,"Plant response rating, Redroot pigweed",[10]; [23],0
same,Redroot pigweed plant response rating,[10]; [24],0
same,Redroot pigweed plant response rating,[10]; [25],0
same,"Plant response rating, Redroot pigweed",[10]; [26],2
same,Redroot pigweed plant response rating,[10]; [27],4
same,Rape plant response rating,[11]; [21],0
same,Rape plant response rating,[11]; [22],0
same,"Plant response rating, Rape",[11]; [23],0
same,Rape plant response rating,[11]; [24],0
same,Rape plant response rating,[11]; [25],0
same,"Plant response rating, Rape",[11]; [26],0
same,Rape plant response rating,[11]; [27],0
same,Cocklebur plant response rating,[12]; [21],0
same,Cocklebur plant response rating,[12]; [22],0
same,"Plant response rating, Cocklebur",[12]; [23],0
same,Cocklebur plant response rating,[12]; [28],0
same,Cocklebur plant response rating,[12]; [24],0
same,Cocklebur plant response rating,[12]; [25],0
same,"Plant response rating, Cocklebur",[12]; [26],0
same,Cocklebur plant response rating,[12]; [27],0
same,Wild oats plant response rating,[13]; [21],0
same,Wild oats plant response rating,[13]; [22],0
same,"Plant response rating, Wild oats",[13]; [23],3
same,Wild oats plant response rating,[13]; [24],0
same,"Plant response rating, Wild oats",[13]; [26],0
same,Wild oats plant response rating,[13]; [27],0
same,Velvetleaf plant response rating,[14]; [21],0
same,Velvetleaf plant response rating,[14]; [22],0
same,"Plant response rating, Velvetleaf",[14]; [23],1
same,Velvetleaf plant response rating,[14]; [24],0
same,Velvetleaf plant response rating,[14]; [25],0
same,"Plant response rating, Velvetleaf",[14]; [26],0
same,Velvetleaf plant response rating,[14]; [27],2
same,Crabgrass plant response rating,[15]; [21],2
same,Crabgrass plant response rating,[15]; [22],6
same,"Plant response rating, Crabgrass",[15]; [23],9
same,Crabgrass plant response rating,[15]; [24],0
same,Crabgrass plant response rating,[15]; [25],6
same,"Plant response rating, Crabgrass",[15]; [26],1
same,Crabgrass plant response rating,[15]; [27],3
same,Sugarbeets plant response rating,[16]; [21],0
same,Sugarbeets plant response rating,[16]; [22],6
same,"Plant response rating, Sugarbeets",[16]; [23],7
same,Sugarbeets plant response rating,[16]; [24],0
same,Sugarbeets plant response rating,[16]; [25],0
same,"Plant response rating, Sugarbeets",[16]; [26],0
same,Sugarbeets plant response rating,[16]; [27],0
